The values below come from paper PMC6883173 (Nature, 2019).

As a reminder, the stoichiometry N is a count of units in the complex or per binding partner.

One data set concerns the target SpoT1–387 (Pseudomonas aeruginosa, UniProt Q9HTM0). The data set can be described thus: NDK/PK/LDH coupled NADH assay. It counts as biochemical.
The target in the next data set is PurF^EC (Escherichia coli, UniProt P0AG16). The data set can be described thus: coupled PurD/PK/LDH NADH assay. The class given is biochemical. The note with it: 30 °C; 50 nM PurF, 5 mM glutamine, 1 mM pRpp-Mg, 10 mM MgCl2, pH 7.4.
The data set “crystal structure” deals with the molecule itself. The experiment in a line: crystal structure.

Turning to `Nc1nc2c(ncn2[C@@H]2O[C@H](COP(=O)(O)OP(=O)(O)O)[C@@H](OP(=O)(O)OP(=O)(O)O)[C@H]2O)c(=O)[nH]1` [ppGpp], the “NDK/PK/LDH coupled NADH assay (A340)” value on SpoT1–387 (1 mM ppGpp, 10 uM enzyme, 5 mM MnCl2, 2 mM MgCl2, pH 7.4, 30 °C) is “ppGpp-hydrolyzing domain of SpoT was substantially less active on ppApp than ppGpp in vitro”. For `Nc1ncnc2c1ncn2[C@@H]1O[C@H](COP(=O)(O)OP(=O)(O)O)[C@@H](OP(=O)(O)OP(=O)(O)O)[C@H]1O` [ppApp], the “NDK/PK/LDH coupled NADH assay (A340)” value on SpoT1–387 (1 mM ppApp, otherwise same) is listed as “ppGpp-hydrolyzing domain of SpoT was substantially less active on ppApp than ppGpp in vitro”. Moreover, the activity versus concentration entry at PurF^EC is reported as “Changes to the activity of PurF^EC in the presence of indicated concentrations of ppGpp or ppApp”.

B1: PurF from E. coli (PurF^EC), glutamine amidophosphoribosyltransferase (enzyme, UniProt P0AG16 1-505, looked up)
chain: MCGIVGIAGVMPVNQSIYDALTVLQHRGQDAAGIITIDANNCFRLRKANGLVSDVFEARHMQRLQGNMGIGHVRYPTAGSSSASEAQPFYVNSPYGITLAHNGNLTNAHELRKKLFEEKRRHINTTSDSEILLNIFASELDNFRHYPLEADNIFAAIAATNRLIRGAYACVAMIIGHGMVAFRDPNGIRPLVLGKRDIDENRTEYMVASESVALDTLGFDFLRDVAPGEAIYITEEGQLFTRQCADNPVSNPCLFEYVYFARPDSFIDKISVYSARVNMGTKLGEKIAREWEDLDIDVVIPIPETSCDIALEIARILGKPYRQGFVKNRYVGRTFIMPGQQLRRKSVRRKLNANRAEFRDKNVLLVDDSIVRGTTSEQIIEMAREAGAKKVYLASAAPEIRFPNVYGIDMPSATELIAHGREVDEIRQIIGADGLIFQDLNDLIDAVRAENPDIQQFECSVFNGVYVTKDVDQGYLDFLDTLRNDDAKAVQRQNEVENLEMHNEG
On to B1, for which the “stoichiometry N” value in the data set “crystal structure” was found to be 4.
